Reference: PMC7419507, “In vitro Cas9-assisted editing of modular polyketide synthase genes to produce desired natural product derivatives” (Nature Communications, 2020)
pEC50: −log10 of the molar value. “And” between values parts separate entries of the source, which are not always exact repeats. Equal entries are not always repeated.

How the values were obtained:
[1] = Cytotoxicity assay (CellTiter-Glo, 72 h), SKOV-3; type: cell-based, human; details: human, raw replicate data, read-out: SKOV3 viability (%)
In short: (§1)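 Cells were seeded at 1000 cells/well and allowed 4 h at 37 °C, 5% CO2 before 2-fold compound dilutions in DMSO were added (0.5% final DMSO). After 72 h exposure, viability was read by CellTiter-Glo luminescence.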

[2] = tested on: human ovarian adenocarcinoma SKOV-3 cells; assay: Cytotoxicity assay (CellTiter-Glo, 72 h), SKOV-3; type: cell-based; details: raw replicate data
In short: as §1

[3] = tested on: Jurkat, SKOV-3 and MESO-1 cells; assay: Cytotoxicity assay, statements for all tested cell lines together; type: cell-based; details: Jurkat, SKOV-3 and MESO-1 cells, 72 h
In short: as §1

[4] = biological target: T1, FKBP12 and mTOR (Homo sapiens, UniProt P42345+P62942); assay: Fluoppi analysis: induction of FKBP12-mTOR complex formation in transfected HeLa cells; type: cell-based; details: for Foci intensity: raw data, one replicate per line
T1 construct: host or cells: HeLa cells
T1 sequence (P42345 2025-2114 limits assumed): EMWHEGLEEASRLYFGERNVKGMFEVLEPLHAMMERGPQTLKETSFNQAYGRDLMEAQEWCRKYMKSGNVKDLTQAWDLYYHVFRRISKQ
T1 sequence (P62942 whole entry): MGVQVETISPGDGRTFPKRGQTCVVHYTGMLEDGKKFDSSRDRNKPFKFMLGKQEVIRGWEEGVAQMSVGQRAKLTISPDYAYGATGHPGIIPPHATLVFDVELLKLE
In short: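 Complex formation read as fluorescent foci: foci intensity over total per-cell intensity, imaged (×20, 9 fields/well) after fixation and Hoechst stain, giving EC50. Cells: HeLa transiently expressing hAG-mTOR and Ash-FKBP12, exposed to compound concentrations for 1 h at 37 °C.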

[5] = Cytotoxicity assay (CellTiter-Glo, 72 h), Jurkat; type: cell-based; details: human, Jurkat cells (T lymphoma), raw data (replicates)
In short: as §1

[6] = tested on: T lymphoma Jurkat cells; assay: Cytotoxicity assay (CellTiter-Glo, 72 h), Jurkat; type: cell-based; details: raw data (replicates)
In short: as §1

## COC1CC2CCC(C)C(O)(O2)C(=O)C(=O)N2CCCCC2C(=O)OC(C(C)CC2CCC(O)C(OC)C2)CC(=O)C(C)C=C(C)C(O)CC(=O)C(C)C=C(C)C=CC=CC=C1C (stereo not shown) [Compound 14]
[1]; SKOV-3 cells (ovarian adenocarcinoma), conc 9.53674e-5 uM
  viability at 72 h, 9.53674e-05 uM: 105%
[1]; SKOV-3 cells (ovarian adenocarcinoma), conc 0.000190735 uM
  viability at 72 h, 0.000190735 uM: 103%
[1]; SKOV-3 cells (ovarian adenocarcinoma), conc 0.00038147 uM
  viability at 72 h, 0.00038147 uM: 104%
[1]; SKOV-3 cells (ovarian adenocarcinoma), conc 0.000762939 uM
  viability at 72 h, 0.000762939 uM: 102%
[1]; SKOV-3 cells (ovarian adenocarcinoma), conc 0.00152588 uM
  viability at 72 h, 0.00152588 uM: 97.9%
[1]; SKOV-3 cells (ovarian adenocarcinoma), conc 0.00305176 uM
  viability at 72 h, 0.00305176 uM: 98%
[1]; SKOV-3 cells (ovarian adenocarcinoma), conc 0.00610352 uM
  viability at 72 h, 0.00610352 uM: 103%
[1]; SKOV-3 cells (ovarian adenocarcinoma), conc 0.012207 uM
  viability at 72 h, 0.012207 uM: 97.1%
[1]; SKOV-3 cells (ovarian adenocarcinoma), conc 0.0244141 uM
  viability at 72 h, 0.0244141 uM: 106%
[1]; SKOV-3 cells (ovarian adenocarcinoma), conc 0.0488281 uM
  viability at 72 h, 0.0488281 uM: 100%
[1]; SKOV-3 cells (ovarian adenocarcinoma), conc 0.0976562 uM
  viability at 72 h, 0.0976562 uM: 100%
[1]; SKOV-3 cells (ovarian adenocarcinoma), conc 0.195312 uM
  viability at 72 h, 0.195312 uM: 97.3%
[1]; SKOV-3 cells (ovarian adenocarcinoma), conc 0.390625 uM
  viability at 72 h, 0.390625 uM: 99.4%
[1]; SKOV-3 cells (ovarian adenocarcinoma), conc 12.5 uM
  viability at 72 h, 12.5 uM: 81.9%
[1]; SKOV-3 cells (ovarian adenocarcinoma), conc 25 uM
  viability at 72 h, 25 uM: 73.7%
[1]; SKOV-3 cells (ovarian adenocarcinoma), conc 50 uM
  viability at 72 h, 50 uM: 60.7%
[1]; SKOV-3 ovarian adenocarcinoma cells, conc 0.78125 uM
  viability at 72 h, 0.78125 uM: 93.1%
[1]; SKOV-3 ovarian adenocarcinoma cells, conc 1.5625 uM
  viability at 72 h, 1.5625 uM: 91.2%
[1]; SKOV-3 ovarian adenocarcinoma cells, conc 3.125 uM
  viability at 72 h, 3.125 uM: 84.5%
[1]; SKOV-3 ovarian adenocarcinoma cells, conc 6.25 uM
  viability at 72 h, 6.25 uM: 78.2%
[2]; conc 9.53674e-5 uM
  SKOV3 viability (%): 98.4% and 95.5%
[2]; conc 0.000190735 uM
  SKOV3 viability (%): 101.1% and 93.2%
[2]; conc 0.00038147 uM
  SKOV3 viability (%): 101.8% and 98.2%
[2]; conc 0.000762939 uM
  SKOV3 viability (%): 98.4% and 94.2%
[2]; conc 0.00152588 uM
  SKOV3 viability (%): 99.8% and 104.2%
[2]; conc 0.00305176 uM
  SKOV3 viability (%): 98.8% and 92.1%
[2]; conc 0.00610352 uM
  SKOV3 viability (%): 101.4% and 103.8%
[2]; conc 0.012207 uM
  SKOV3 viability (%): 94.0% and 97.4%
[2]; conc 0.0244141 uM
  SKOV3 viability (%): 103.2% and 105.4%
[2]; conc 0.0488281 uM
  SKOV3 viability (%): 98.2% and 100.0%
[2]; conc 0.0976562 uM
  SKOV3 viability (%): 101.8% and 110.3%
[2]; conc 0.195312 uM
  SKOV3 viability (%): 98.6% and 95.1%
[2]; conc 0.390625 uM
  SKOV3 viability (%): 104.4%
[2]; conc 0.78125 uM
  SKOV3 viability (%): 86.0% and 88.0%
[2]; conc 1.5625 uM
  SKOV3 viability (%): 92.8% and 89.9%
[2]; conc 3.125 uM
  SKOV3 viability (%): 80.6% and 76.1%
[2]; conc 6.25 uM
  SKOV3 viability (%): 79.5%
[2]; conc 12.5 uM
  SKOV3 viability (%): 67.2% and 69.9%
[2]; conc 25 uM
  SKOV3 viability (%): 77.7% and 72.7%
[2]; conc 50 uM
  SKOV3 viability (%): 51.8% and 56.0%
[3]
  Effect on cell viability, in words: slightly suppressed the cell viabilities
[4]; Fluoppi
  PPI-inducing (binding enhancing) activity between FKBP12 and mTOR compared with rapamycin (1), in words: much less potent than 1
[4]; Fluoppi, HeLa cells, 1 h treatment, three independent biological replicates, read-out: EC50, induction of the formation of FKBP-mTOR complex
  pEC50: 5.67
[4]; conc 9.53674e-5 uM
  Foci intensity: 0.01583 and 0.01285 and 0.01813
[4]; conc 0.000190735 uM
  Foci intensity: 0.02463 and 0.01296 and 0.02679
[4]; conc 0.00038147 uM
  Foci intensity: 0.01747 and 0.03336 and 0.009483
[4]; conc 0.000762939 uM
  Foci intensity: 0.01101 and 0.009441 and 0.01241
[4]; conc 0.00152588 uM
  Foci intensity: 0.01354 and 0.009078 and 0.03888
[4]; conc 0.00305176 uM
  Foci intensity: 0.02172 and 0.01712 and 0.01571
[4]; conc 0.00610352 uM
  Foci intensity: 0.01274 and 0.01148 and 0.02185
[4]; conc 0.012207 uM
  Foci intensity: 0.01853 and 0.03131 and 0.01125
[4]; conc 0.0244141 uM
  Foci intensity: 0.04 and 0.01743 and 0.009054
[4]; conc 0.0488281 uM
  Foci intensity: 0.01856 and 0.02257 and 0.02853
[4]; conc 0.0976562 uM
  Foci intensity: 0.02191 and 0.01721 and 0.01479
[4]; conc 0.195312 uM
  Foci intensity: 0.01663 and 0.02497 and 0.01905
[4]; conc 0.390625 uM
  Foci intensity: 0.01986 and 0.02708 and 0.02914
[4]; conc 0.78125 uM
  Foci intensity: 0.02045 and 0.02304 and 0.03319
[4]; conc 1.5625 uM
  Foci intensity: 0.09025 and 0.08153 and 0.07652
[4]; conc 3.125 uM
  Foci intensity: 0.2188 and 0.1724 and 0.1954
[4]; conc 6.25 uM
  Foci intensity: 0.2549 and 0.2832 and 0.2819
[4]; conc 12.5 uM
  Foci intensity: 0.2175 and 0.1877 and 0.2688
[4]; conc 25 uM
  Foci intensity: 0.2553 and 0.272 and 0.2457
[4]; conc 50 uM
  Foci intensity: 0.2721 and 0.2164 and 0.2636
[5]; conc 9.53674e-5 uM
  viability at 72 h, 9.53674e-05 uM: 100%
[5]; conc 0.000190735 uM
  viability at 72 h, 0.000190735 uM: 99.4%
[5]; conc 0.00038147 uM
  viability at 72 h, 0.00038147 uM: 100%
[5]; conc 0.000762939 uM
  viability at 72 h, 0.000762939 uM: 99.9%
[5]; conc 0.00152588 uM
  viability at 72 h, 0.00152588 uM: 101%
[5]; conc 0.00305176 uM
  viability at 72 h, 0.00305176 uM: 103%
[5]; conc 0.00610352 uM
  viability at 72 h, 0.00610352 uM: 98.3%
[5]; conc 0.012207 uM
  viability at 72 h, 0.012207 uM: 100%
[5]; conc 0.0244141 uM
  viability at 72 h, 0.0244141 uM: 102%
[5]; conc 0.0488281 uM
  viability at 72 h, 0.0488281 uM: 101%
[5]; conc 0.0976562 uM
  viability at 72 h, 0.0976562 uM: 97.1%
[5]; conc 0.195312 uM
  viability at 72 h, 0.195312 uM: 95.7%
[5]; conc 0.390625 uM
  viability at 72 h, 0.390625 uM: 94%
[5]; conc 0.78125 uM
  viability at 72 h, 0.78125 uM: 78.6%
[5]; conc 1.5625 uM
  viability at 72 h, 1.5625 uM: 66.2%
[5]; conc 3.125 uM
  viability at 72 h, 3.125 uM: 45.1%
[5]; conc 6.25 uM
  viability at 72 h, 6.25 uM: 45.6%
[5]; conc 12.5 uM
  viability at 72 h, 12.5 uM: 38.2%
[5]; conc 25 uM
  viability at 72 h, 25 uM: 31.3%
[5]; conc 50 uM
  viability at 72 h, 50 uM: 0.9%
[6]; conc 9.53674e-5 uM
  Jurkat viability (%): 99.0% and 99.6%
[6]; conc 0.000190735 uM
  Jurkat viability (%): 96.4% and 106.9%
[6]; conc 0.00038147 uM
  Jurkat viability (%): 106.3% and 110.1%
[6]; conc 0.000762939 uM
  Jurkat viability (%): 94.3% and 106.0%
[6]; conc 0.00152588 uM
  Jurkat viability (%): 101.0% and 106.0%
[6]; conc 0.00305176 uM
  Jurkat viability (%): 97.8%
[6]; conc 0.00610352 uM
  Jurkat viability (%): 106.2% and 106.5%
[6]; conc 0.012207 uM
  Jurkat viability (%): 99.3%
[6]; conc 0.0244141 uM
  Jurkat viability (%): 108.2% and 105.8%
[6]; conc 0.0488281 uM
  Jurkat viability (%): 103.9% and 107.5%
[6]; conc 0.0976562 uM
  Jurkat viability (%): 96.8%
[6]; conc 0.195312 uM
  Jurkat viability (%): 93.3% and 90.8%
[6]; conc 0.390625 uM
  Jurkat viability (%): 89.0% and 89.4%
[6]; conc 0.78125 uM
  Jurkat viability (%): 77.6% and 70.2%
[6]; conc 1.5625 uM
  Jurkat viability (%): 62.3% and 57.2%
[6]; conc 3.125 uM
  Jurkat viability (%): 49.0% and 51.4%
[6]; conc 6.25 uM
  Jurkat viability (%): 45.2% and 40.6%
[6]; conc 12.5 uM
  Jurkat viability (%): 39.4% and 37.1%
[6]; conc 25 uM
  Jurkat viability (%): 31.9% and 26.3%
[6]; conc 50 uM
  Jurkat viability (%): 1.0% and 0.558%
